Experimental data reported in PubChem BioAssay AID504934 (The Scripps Research Institute Molecular Screening Center, 2011).
Activity calls are given as the source filed them. The rule behind the calls is not given here.

Assays:
Test in all cases: PubChem AID 504934
AR = settings: nuclear receptor panel Gal4 luciferase reporter, at 10 µM
NOR1 = settings: nuclear receptor panel Gal4 luciferase reporter, at 10 µM
CAR = settings: nuclear receptor panel Gal4 luciferase reporter, at 10 µM
EAR-2 (COUP-TF3) = settings: nuclear receptor panel Gal4 luciferase reporter, at 10 µM
[1] = target: Oxysterols receptor LXR-beta (Homo sapiens) (UniProt P55055); settings: nuclear receptor panel Gal4 luciferase reporter, LXRb, at 10 µM
[2] = target: Retinoic acid receptor RXR-alpha (Homo sapiens) (UniProt P19793); settings: nuclear receptor panel Gal4 luciferase reporter, RXRa, at 10 µM
ERRa = settings: nuclear receptor panel Gal4 luciferase reporter, at 10 µM
SHP = settings: nuclear receptor panel Gal4 luciferase reporter, at 10 µM
Nur77 = settings: nuclear receptor panel Gal4 luciferase reporter, at 10 µM
[3] = target: Nuclear receptor subfamily 1 group I member 2 (Homo sapiens) (UniProt O75469); settings: nuclear receptor panel Gal4 luciferase reporter, PXR, at 10 µM
PNR = settings: nuclear receptor panel Gal4 luciferase reporter, at 10 µM
Nurr1 = settings: nuclear receptor panel Gal4 luciferase reporter, at 10 µM
PPARd = settings: nuclear receptor panel Gal4 luciferase reporter, at 10 µM
Rev-erb a = settings: nuclear receptor panel Gal4 luciferase reporter, at 10 µM
TR2 = settings: nuclear receptor panel Gal4 luciferase reporter, at 10 µM
THRb = settings: nuclear receptor panel Gal4 luciferase reporter, at 10 µM
PGR = settings: nuclear receptor panel Gal4 luciferase reporter, at 10 µM
[4] = target: Bile acid receptor (Homo sapiens) (UniProt Q96RI1); settings: nuclear receptor panel Gal4 luciferase reporter, FXR, at 10 µM
[5] = target: Nuclear receptor ROR-gamma (Homo sapiens) (UniProt P51449); settings: nuclear receptor panel Gal4 luciferase reporter, RORg, at 10 µM
[6] = target: Steroidogenic factor 1 (Homo sapiens) (UniProt Q13285); settings: nuclear receptor panel Gal4 luciferase reporter, SF1, at 10 µM
Rev-erb b = settings: nuclear receptor panel Gal4 luciferase reporter, at 10 µM
LXRa = settings: nuclear receptor panel Gal4 luciferase reporter, at 10 µM
RXRg = settings: nuclear receptor panel Gal4 luciferase reporter, at 10 µM
pBIND-1 = settings: nuclear receptor panel Gal4 luciferase reporter, at 10 µM

Chain of Nuclear receptor subfamily 1 group I member 2 (Homo sapiens) (O75469 whole entry, looked up, the tested form may be a part): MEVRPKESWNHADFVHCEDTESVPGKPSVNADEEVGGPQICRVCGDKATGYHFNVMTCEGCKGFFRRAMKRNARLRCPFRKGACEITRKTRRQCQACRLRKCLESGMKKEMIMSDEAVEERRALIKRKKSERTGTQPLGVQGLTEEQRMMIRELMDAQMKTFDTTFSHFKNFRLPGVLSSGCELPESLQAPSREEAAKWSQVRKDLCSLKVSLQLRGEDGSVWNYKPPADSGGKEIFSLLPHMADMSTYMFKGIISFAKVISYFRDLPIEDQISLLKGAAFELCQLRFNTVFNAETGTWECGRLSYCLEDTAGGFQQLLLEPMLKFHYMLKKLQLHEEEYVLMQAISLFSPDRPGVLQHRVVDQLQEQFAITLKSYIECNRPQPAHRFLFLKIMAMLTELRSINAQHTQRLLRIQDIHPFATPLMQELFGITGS
Chain of Nuclear receptor ROR-gamma (Homo sapiens) (P51449 whole entry, looked up, the tested form may be a part): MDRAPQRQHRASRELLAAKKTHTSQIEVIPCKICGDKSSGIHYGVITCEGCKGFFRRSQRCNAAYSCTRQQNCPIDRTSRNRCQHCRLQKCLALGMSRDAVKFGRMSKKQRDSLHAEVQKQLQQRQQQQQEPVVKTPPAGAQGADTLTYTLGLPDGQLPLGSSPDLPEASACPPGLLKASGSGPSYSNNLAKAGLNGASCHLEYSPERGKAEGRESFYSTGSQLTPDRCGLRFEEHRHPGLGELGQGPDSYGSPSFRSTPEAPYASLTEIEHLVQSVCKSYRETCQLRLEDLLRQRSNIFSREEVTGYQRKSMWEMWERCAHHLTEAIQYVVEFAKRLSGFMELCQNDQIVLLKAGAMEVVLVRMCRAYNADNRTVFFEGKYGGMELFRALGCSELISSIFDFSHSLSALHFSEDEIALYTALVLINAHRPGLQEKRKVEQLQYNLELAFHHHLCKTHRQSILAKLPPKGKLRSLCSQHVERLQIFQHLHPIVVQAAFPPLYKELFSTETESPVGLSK
Chain of Steroidogenic factor 1 (Homo sapiens) (Q13285 whole entry, looked up, the tested form may be a part): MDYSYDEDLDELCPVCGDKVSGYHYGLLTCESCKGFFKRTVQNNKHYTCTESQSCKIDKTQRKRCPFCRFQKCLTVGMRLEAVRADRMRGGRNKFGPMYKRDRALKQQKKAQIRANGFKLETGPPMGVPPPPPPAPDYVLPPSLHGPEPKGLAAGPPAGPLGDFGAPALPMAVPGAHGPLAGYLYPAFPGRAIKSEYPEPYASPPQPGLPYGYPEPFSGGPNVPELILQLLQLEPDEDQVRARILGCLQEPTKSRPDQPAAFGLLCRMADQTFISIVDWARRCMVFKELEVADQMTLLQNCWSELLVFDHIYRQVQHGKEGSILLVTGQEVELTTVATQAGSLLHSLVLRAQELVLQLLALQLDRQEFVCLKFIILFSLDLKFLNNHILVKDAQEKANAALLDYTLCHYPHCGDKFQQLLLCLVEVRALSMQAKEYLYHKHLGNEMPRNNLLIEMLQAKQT
Chain of Bile acid receptor (Homo sapiens) (Q96RI1 whole entry, looked up, the tested form may be a part): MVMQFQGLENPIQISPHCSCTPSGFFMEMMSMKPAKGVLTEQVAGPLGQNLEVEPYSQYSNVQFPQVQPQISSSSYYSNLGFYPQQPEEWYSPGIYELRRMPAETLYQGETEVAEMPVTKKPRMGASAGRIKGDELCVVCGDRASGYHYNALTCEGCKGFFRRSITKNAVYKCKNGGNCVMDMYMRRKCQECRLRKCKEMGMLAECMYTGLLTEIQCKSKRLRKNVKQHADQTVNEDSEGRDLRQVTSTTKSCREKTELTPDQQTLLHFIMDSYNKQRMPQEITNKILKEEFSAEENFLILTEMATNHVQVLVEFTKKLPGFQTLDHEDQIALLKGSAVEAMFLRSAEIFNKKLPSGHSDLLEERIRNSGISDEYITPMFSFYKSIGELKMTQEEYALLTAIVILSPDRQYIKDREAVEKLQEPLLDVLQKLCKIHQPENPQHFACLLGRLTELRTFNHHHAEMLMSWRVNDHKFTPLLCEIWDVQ
Chain of Oxysterols receptor LXR-beta (Homo sapiens) (P55055 whole entry, looked up, the tested form may be a part): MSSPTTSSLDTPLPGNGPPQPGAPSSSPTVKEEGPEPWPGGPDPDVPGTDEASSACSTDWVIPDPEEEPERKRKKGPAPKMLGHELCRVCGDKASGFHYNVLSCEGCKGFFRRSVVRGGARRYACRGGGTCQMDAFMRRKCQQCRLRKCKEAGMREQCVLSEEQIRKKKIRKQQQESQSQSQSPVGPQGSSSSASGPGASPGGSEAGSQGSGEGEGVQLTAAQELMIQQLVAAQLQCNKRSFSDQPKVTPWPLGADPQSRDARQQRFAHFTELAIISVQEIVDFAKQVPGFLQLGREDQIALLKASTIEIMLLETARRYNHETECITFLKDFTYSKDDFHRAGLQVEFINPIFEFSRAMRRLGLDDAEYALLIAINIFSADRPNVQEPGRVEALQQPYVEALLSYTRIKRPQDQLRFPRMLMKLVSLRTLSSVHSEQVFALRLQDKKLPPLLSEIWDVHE
Chain of Retinoic acid receptor RXR-alpha (Homo sapiens) (P19793 whole entry, looked up, the tested form may be a part): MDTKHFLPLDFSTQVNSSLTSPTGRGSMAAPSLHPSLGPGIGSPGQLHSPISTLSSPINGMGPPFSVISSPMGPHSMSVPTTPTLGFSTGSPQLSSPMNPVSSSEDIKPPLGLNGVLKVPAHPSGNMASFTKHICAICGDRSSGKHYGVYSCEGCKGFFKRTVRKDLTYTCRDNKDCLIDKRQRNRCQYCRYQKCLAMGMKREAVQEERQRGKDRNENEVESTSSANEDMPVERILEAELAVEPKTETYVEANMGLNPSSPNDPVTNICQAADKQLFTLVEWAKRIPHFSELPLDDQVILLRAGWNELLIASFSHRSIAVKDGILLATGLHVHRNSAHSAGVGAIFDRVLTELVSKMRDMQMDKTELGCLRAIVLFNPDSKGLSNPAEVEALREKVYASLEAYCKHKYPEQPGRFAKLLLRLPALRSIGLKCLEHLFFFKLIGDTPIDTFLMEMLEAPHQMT

O=c1cc(N2CCN(c3cccc(Cl)c3)CC2)[nH]c(=O)n1C1CCCCC1
fold change (AR): 0.91 (inactive)
fold change (NOR1): 0.87 (inactive)
fold change (CAR): 0.38
fold change (EAR-2 (COUP-TF3)): 1 (inactive)
fold change [1]: 1.9 (inactive)
fold change [2]: 0.75
fold change (ERRa): 1.34
fold change (SHP): 0.86 (inactive)
fold change (Nur77): 0.72
fold change [3]: 1.26
fold change (PNR): 0.72
fold change (Nurr1): 0.79
fold change (PPARd): 1.54
fold change (Rev-erb a): 0.84 (inactive)
fold change (TR2): 0.63
fold change (THRb): 1.06 (inactive)
fold change (PGR): 0.97 (inactive)
fold change [4]: 2.52
fold change [5]: 0.52
fold change [6]: 0.71
fold change (Rev-erb b): 0.69
fold change (LXRa): 1.27
fold change (RXRg): 0.81 (inactive)
fold change (pBIND-1): 1.28
